Laboratory results as given in patent US20220202905A1, “COMPOSITION FOR PREVENTING OR TREATING NEUROTROPHIC KERATITIS WHICH CONTAINS PACAP PEPTIDE OR STABILIZED PACAP PEPTIDE” (SENJU PHARMACEUTICAL CO., LTD., priority 2019, published 2022).
Each block holds one compound with its values, some of them ahead of it. Square brackets hold non-standard residues; d marks the D form. Peptide text beside a SMILES is read from it. Ala(1H-tetrazol-5-yl) = N[C@@H](Cc1nnn[nH]1)C(=O)O; Nle = CCCC[C@H](N)C(=O)O

Test: Peptide stability test, Tris buffer (pH 7.0), 60° C. storage, HPLC remaining rate
Type: physicochemical
Conditions: for remaining rate after correction for water, 60° C., 1 week preservation / remaining rate after correction for water, 60° C., 2 weeks preservation: 100 μM in Tris buffer pH 7.0
Procedure: Peptides 1, 2 and 6 to 9 synthesized in Example 2 were weighed and dissolved in Tris buffer (pH 7.0) to prepare 1.0 mM peptide solutions. Each solution was filtered with a Chromatdisk (product of Merck Millipore, Millex-GV, 0.22 μm). The filtrate was diluted to 100 μM with Tris buffer (pH 7.0) and dispensed into a tube (Protein LoBind Tube by Eppendorf Co.). The prepared peptide solutions were incubated for 1 week or 2 weeks in a 60° C. thermostatic bath to obtain stored samples. A simultaneously prepared sample among the peptide solutions that was not stored was used as a standard sample (initial sample). The standard sample and the stored samples were stored at −30° C. until sample analysis. Each stored sample was measured under the following HPLC analysis conditions 2, and the remaining rate after correction for water for each peptide among the stored samples was calculated in the same manner as Example 3. Guard column: XSelect CSH C18 by Waters Co., 5 μm, 4.6×20 mm Guard Cartridge Detection wavelength: 220 nm Mobile phase A: 0.1% formic acid aqueous solution Mobile phase B: 0.1% acetonitrile formate solution Measuring time: 20 minutes Measuring sample injection rate: 50 μL Flow rate: 1.0 mL/min Column temperature: 40° C. Sample cooler: 25° C. Mobile phase delivery: The mixing ratio of mobile phase A and mobile phase B was varied as shown in Table 5 for linear concentration gradient control. Peptides 12 to 25, 27 and 28 synthesized in Example 2 were weighed and dissolved in Tris buffer (pH 7.0) to prepare 1.0 mM peptide solutions. Each solution was filtered with a Chromatdisk (product of Merck Millipore, Millex-GV, 0.22 μm). The filtrate was diluted to 100 μM with Tris buffer (pH 7.0) and dispensed into a tube (Protein LoBind Tube by Eppendorf Co.). The prepared peptide solutions were incubated for one week or 2 weeks in a 60° C. thermostatic bath to obtain stored samples. A simultaneously prepared sample among the peptide solutions that was not stored was used as a standard sample (initial sample). The standard sample and the stored samples were stored at −30° C. until sample analysis. The remaining rate after correction for water for each peptide among the stored samples was calculated in the same manner as Example 4, and the results are shown in Table 7. Peptides 29 to 34 synthesized in Example 2 were weighed and dissolved in Tris buffer (pH 7.0) to prepare 1.0 mM peptide solutions. Each solution was filtered with a Chromatdisk (product of Merck Millipore, Millex-GV, 0.22 μm). The filtrate was diluted to 100 μM with Tris buffer (pH 7.0) and dispensed into a tube (Protein LoBind Tube by Eppendorf Co.). The prepared peptide solutions were incubated for 2 weeks in a 60° C. thermostatic bath to obtain stored samples. A simultaneously prepared sample among the peptide solutions that was not stored was used as a standard sample (initial sample). The standard sample and the stored samples were stored at −30° C. until sample analysis. The remaining rate after correction for water for each peptide among the stored samples was calculated in the same manner as Example 4, and the results are shown in Table 7-2. Peptide 26 synthesized in Example 2 was weighed and dissolved in Tris buffer (pH 7.0) to prepare a 1.0 mM peptide solution. The solution was filtered with a Chromatdisk (product of Merck Millipore, Millex-GV, 0.22 μm). The filtrate was diluted to 100 μM with Tris buffer (pH 7.0) and dispensed into a tube (Protein LoBind Tube by Eppendorf Co.). The prepared peptide solution was incubated for one week or 2 weeks in a 60° C. thermostatic bath to obtain stored samples. A simultaneously prepared sample among the peptide solutions that was not stored was used as a standard sample (initial sample). The standard sample and the stored sample were stored at −30° C. until sample analysis. […]

remaining rate after correction for water, 60° C., 1 week preservation (Table 6, HPLC conditions 2): 91.7%
remaining rate after correction for water, 60° C., 2 weeks preservation (Table 6, HPLC conditions 2): 84.8%
SMILES: CC[C@H](C)[C@H](NC(=O)CNC(=O)[C@H](Cc1nnn[nH]1)NC(=O)[C@H](CO)NC(=O)[C@@H](N)Cc1c[nH]cn1)C(=O)N[C@@H](Cc1ccccc1)C(=O)N[C@H](C(=O)N[C@@H](Cc1nnn[nH]1)C(=O)N[C@@H](CO)C(=O)N[C@@H](Cc1ccc(O)cc1)C(=O)N[C@@H](CO)C(=O)N[C@@H](CCCNC(=N)N)C(=O)N[C@@H](Cc1ccc(O)cc1)C(=O)N[C@@H](CCCNC(=N)N)C(=O)N[C@@H](CCCCN)C(=O)N[C@@H](CCC(N)=O)C(=O)N[C@@H](CC(C)C)C(=O)N[C@@H](C)C(=O)N[C@H](C(=O)N[C@@H](CCCCN)C(=O)N[C@@H](CCCCN)C(=O)N[C@@H](Cc1ccc(O)cc1)C(=O)N[C@@H](CC(C)C)C(=O)N[C@@H](C)C(=O)N[C@@H](C)C(=O)N[C@H](C(=O)N[C@@H](CC(C)C)C(N)=O)C(C)C)C(C)C)[C@@H](C)O [Peptide 7] (H-HS[Ala(1H-tetrazol-5-yl)]GIFT[Ala(1H-tetrazol-5-yl)]SYSRYRKQLAVKKYLAAVL-NH2)

expected remaining rate for 2 years at room temperature (buffer, 336 h): ≥ 90%
SMILES: CCCC[C@H](NC(=O)[C@H](CCC(N)=O)NC(=O)[C@H](CCCCN)NC(=O)[C@H](CCCNC(=N)N)NC(=O)[C@H](Cc1ccc(O)cc1)NC(=O)[C@H](CCCNC(=N)N)NC(=O)[C@H](CO)NC(=O)[C@H](Cc1ccc(O)cc1)NC(=O)[C@H](CO)NC(=O)[C@H](Cc1nnn[nH]1)NC(=O)[C@@H](NC(=O)[C@H](Cc1ccccc1)NC(=O)[C@@H](NC(=O)CNC(=O)[C@H](Cc1nnn[nH]1)NC(=O)[C@H](CO)NC(=O)[C@H](Cc1c[nH]cn1)NC(C)=O)[C@@H](C)CC)[C@@H](C)O)C(=O)N[C@@H](C)C(=O)N[C@H](C(=O)N[C@@H](CCCCN)C(=O)N[C@@H](CCCCN)C(=O)N[C@@H](Cc1ccc(O)cc1)C(=O)N[C@@H](CC(C)C)C(=O)N[C@@H](C)C(=O)N[C@@H](C)C(=O)N[C@H](C(=O)N[C@@H](CC(C)C)C(N)=O)C(C)C)C(C)C [Peptide 8] (Ac-HS[Ala(1H-tetrazol-5-yl)]GIFT[Ala(1H-tetrazol-5-yl)]SYSRYRKQ[Nle]AVKKYLAAVL-NH2)

remaining rate after correction for water, 60° C., 1 week preservation (Table 7): 96.7%
remaining rate after correction for water, 60° C., 2 weeks preservation (Table 7): 94.5%
SMILES: CC[C@H](C)[C@H](NC(=O)CNC(=O)[C@H](Cc1nnn[nH]1)NC(=O)[C@H](C)NC(=O)[C@H](Cc1c[nH]cn1)NC(C)=O)C(=O)N[C@@H](Cc1ccccc1)C(=O)N[C@H](C(=O)N[C@@H](Cc1nnn[nH]1)C(=O)N[C@@H](CO)C(=O)N[C@@H](Cc1ccc(O)cc1)C(=O)N[C@@H](CO)C(=O)N[C@@H](CCCNC(=N)N)C(=O)N[C@@H](Cc1ccc(O)cc1)C(=O)N[C@@H](CCCNC(=N)N)C(=O)N[C@@H](CCCCN)C(=O)N[C@@H](CCC(N)=O)C(=O)N[C@@H](CC(C)C)C(=O)N[C@@H](C)C(=O)N[C@H](C(=O)N[C@@H](CCCCN)C(=O)N[C@@H](CCCCN)C(=O)N[C@@H](Cc1ccc(O)cc1)C(=O)N[C@@H](CC(C)C)C(=O)N[C@@H](C)C(=O)N[C@@H](C)C(=O)N[C@H](C(=O)N[C@@H](CC(C)C)C(N)=O)C(C)C)C(C)C)[C@@H](C)O [Peptide 14] (Ac-HA[Ala(1H-tetrazol-5-yl)]GIFT[Ala(1H-tetrazol-5-yl)]SYSRYRKQLAVKKYLAAVL-NH2)
